Measurements taken from ChEMBL document CHEMBL3217638, “Synthetic modulators of the retinoic acid receptor-related orphan receptors” (Medchemcomm, 2013).

How the values were obtained:
[1] = target: T1, Nuclear receptor ROR-gamma (Homo sapiens, UniProt P51449); assay: Displacement of 25-[3H]hydroxycholesterol from ROR gamma (unknown origin) by competitive binding assay
T1 sequence (P51449 whole entry): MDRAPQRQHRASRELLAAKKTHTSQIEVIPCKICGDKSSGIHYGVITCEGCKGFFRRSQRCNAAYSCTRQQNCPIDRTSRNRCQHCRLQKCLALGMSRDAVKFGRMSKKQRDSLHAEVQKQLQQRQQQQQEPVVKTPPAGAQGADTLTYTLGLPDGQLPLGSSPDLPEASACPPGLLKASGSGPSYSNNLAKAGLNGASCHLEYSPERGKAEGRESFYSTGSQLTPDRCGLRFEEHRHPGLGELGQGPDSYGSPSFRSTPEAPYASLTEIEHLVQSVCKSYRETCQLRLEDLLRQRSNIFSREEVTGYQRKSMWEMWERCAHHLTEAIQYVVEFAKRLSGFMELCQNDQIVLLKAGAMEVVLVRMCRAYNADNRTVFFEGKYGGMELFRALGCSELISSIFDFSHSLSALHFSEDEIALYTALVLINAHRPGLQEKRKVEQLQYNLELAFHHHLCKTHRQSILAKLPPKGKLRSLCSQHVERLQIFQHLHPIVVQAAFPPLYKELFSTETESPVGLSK

[2] = target: T2, Nuclear receptor ROR-beta (Homo sapiens) (UniProt Q92753); assay: Inhibition of ROR beta (unknown origin)-mediated transactivation
T2 sequence (whole entry): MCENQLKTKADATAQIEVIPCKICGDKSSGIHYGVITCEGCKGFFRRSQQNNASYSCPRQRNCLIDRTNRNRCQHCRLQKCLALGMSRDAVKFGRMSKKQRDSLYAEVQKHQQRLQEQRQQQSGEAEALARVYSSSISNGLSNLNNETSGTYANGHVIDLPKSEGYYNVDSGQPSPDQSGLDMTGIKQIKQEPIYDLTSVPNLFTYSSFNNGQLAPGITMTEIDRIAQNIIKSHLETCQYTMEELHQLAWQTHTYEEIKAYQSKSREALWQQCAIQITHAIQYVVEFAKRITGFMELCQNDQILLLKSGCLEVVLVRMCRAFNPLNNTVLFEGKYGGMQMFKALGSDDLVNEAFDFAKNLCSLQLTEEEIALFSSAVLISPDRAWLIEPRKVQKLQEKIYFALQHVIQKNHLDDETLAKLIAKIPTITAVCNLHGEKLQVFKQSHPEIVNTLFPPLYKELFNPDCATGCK

[3] = target: T1, Nuclear receptor ROR-gamma; assay: Agonist activity at human His6-tagged ROR gamma ligand binding domain (residues 262 to 507) expressed in Escherichia coli BL21 (DE3) cells assessed as increase in recruitment of coactivator peptide by AlphaScreen biochemical assay; type: functional
[4] = Plasma concentration in mouse at 10 mg/kg, ip administered as single dose after 1 hr; type: ADME, organism-based; set-up: dose 10 mg/kg, route intraperitoneal
[5] = Plasma concentration in mouse at 10 mg/kg, ip administered as single dose after 8 hrs; type: ADME, organism-based; set-up: dose 10 mg/kg, route intraperitoneal
[6] = target: T3, Oxysterols receptor LXR-alpha (Homo sapiens) (UniProt Q13133); assay: Activation of GAL4-fused LXR alpha (unknown origin) expressed in HEK293T cells after 20 hrs relative to T0901317; type: cell-based; details: HEK-293T
T3 sequence (whole entry): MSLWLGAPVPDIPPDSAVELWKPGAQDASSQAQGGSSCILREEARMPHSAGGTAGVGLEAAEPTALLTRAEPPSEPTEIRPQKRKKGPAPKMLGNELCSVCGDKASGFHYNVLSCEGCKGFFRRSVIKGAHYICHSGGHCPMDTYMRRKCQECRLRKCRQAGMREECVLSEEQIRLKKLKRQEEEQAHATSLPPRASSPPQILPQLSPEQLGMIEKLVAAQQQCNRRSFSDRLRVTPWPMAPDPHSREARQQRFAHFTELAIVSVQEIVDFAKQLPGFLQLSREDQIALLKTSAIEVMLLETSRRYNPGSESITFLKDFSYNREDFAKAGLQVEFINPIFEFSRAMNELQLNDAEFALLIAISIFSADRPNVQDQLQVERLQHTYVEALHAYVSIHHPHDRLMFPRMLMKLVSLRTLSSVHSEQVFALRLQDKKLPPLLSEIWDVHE

[7] = target: T1, Nuclear receptor ROR-gamma; assay: Activity at human His(GST)-tagged ROR gamma LBD expressed in Escherichia coli BL21 (DE3) cells assessed as receptor-biotinylated SRC1 peptide interaction by TR-FRET assay; type: functional
[8] = target: T1, Nuclear receptor ROR-gamma; assay: Displacement of 25-[3H]hydroxycholesterol from GST-tagged ROR gamma ligand binding domain (unknown origin) expressed in Escherichia coli BL21 gold (DE3) cells by radioligand competition assay
[9] = target: T4, Nuclear receptor ROR-alpha (Homo sapiens, UniProt P35398); assay: Displacement of 25-[3H]hydroxycholesterol from GST-tagged ROR alpha ligand binding domain (unknown origin) expressed in Escherichia coli BL21 gold (DE3) cells by radioligand competition assay
T4 sequence (P35398 whole entry): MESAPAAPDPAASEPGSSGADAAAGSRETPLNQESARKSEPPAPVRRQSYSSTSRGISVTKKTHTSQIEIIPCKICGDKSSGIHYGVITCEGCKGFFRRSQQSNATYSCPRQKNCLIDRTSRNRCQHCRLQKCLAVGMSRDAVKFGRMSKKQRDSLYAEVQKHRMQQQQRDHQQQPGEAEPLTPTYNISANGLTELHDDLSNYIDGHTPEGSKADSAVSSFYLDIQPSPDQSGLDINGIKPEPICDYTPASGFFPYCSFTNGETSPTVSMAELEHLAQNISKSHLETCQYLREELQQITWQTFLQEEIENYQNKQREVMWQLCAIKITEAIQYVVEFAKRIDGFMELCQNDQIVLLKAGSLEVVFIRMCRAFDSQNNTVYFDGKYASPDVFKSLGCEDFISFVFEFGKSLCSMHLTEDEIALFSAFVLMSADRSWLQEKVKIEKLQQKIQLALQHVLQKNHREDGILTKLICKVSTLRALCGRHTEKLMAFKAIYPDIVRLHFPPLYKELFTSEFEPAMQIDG

[10] = target: T1, Nuclear receptor ROR-gamma; assay: Agonist activity at full length human ROR gamma expressed in human Jurkat cells assessed as IL17 promoter activation by luciferase reporter gene assay; type: functional, cell-based
[11] = target: T5, Nuclear receptor ROR-gamma (Homo sapiens) (UniProt P51449); assay: Binding affinity to human ROR gamma ligand binding domain assessed as thermal stability shift by circular dichroism analysis
T5 sequence (whole entry): T1 sequence (P51449 whole entry)

[12] = target: T6, Nuclear receptor ROR-alpha (Mus musculus) (UniProt P51448); details: CHO-K1
T6 sequence (whole entry): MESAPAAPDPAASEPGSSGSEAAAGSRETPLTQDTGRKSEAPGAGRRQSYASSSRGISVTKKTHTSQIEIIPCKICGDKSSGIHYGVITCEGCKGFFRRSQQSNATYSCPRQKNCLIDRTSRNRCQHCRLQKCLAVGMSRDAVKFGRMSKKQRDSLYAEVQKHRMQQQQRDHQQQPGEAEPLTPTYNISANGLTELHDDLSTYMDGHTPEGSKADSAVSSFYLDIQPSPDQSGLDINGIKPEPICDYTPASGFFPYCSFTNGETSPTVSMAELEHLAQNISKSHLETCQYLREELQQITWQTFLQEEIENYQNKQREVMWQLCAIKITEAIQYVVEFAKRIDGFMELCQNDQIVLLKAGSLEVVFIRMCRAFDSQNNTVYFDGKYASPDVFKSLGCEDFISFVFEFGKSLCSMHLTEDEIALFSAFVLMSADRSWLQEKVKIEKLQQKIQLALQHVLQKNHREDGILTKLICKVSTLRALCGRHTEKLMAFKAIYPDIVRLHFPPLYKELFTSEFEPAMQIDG
Description: Inverse agonist activity at mouse ROR alpha expressed in CHO-K1 cells after 24 hrs by luciferase reporter gene assay relative to vehicle control response

[13] = target: T1, Nuclear receptor ROR-gamma
Description: Inverse agonist activity at GAL4-fused ROR gamma (unknown origin) expressed in HEK293 cells assessed as inhibition of transcriptional activity after 24 hrs by luciferase reporter gene assay

[14] = target: T4, Nuclear receptor ROR-alpha; assay: Inverse agonist activity at GAL4-fused ROR alpha (unknown origin) expressed in HEK293 cells assessed as inhibition of transcriptional activity after 24 hrs by luciferase reporter gene assay; type: cell-based
[15] = target: T5, Nuclear receptor ROR-gamma (Homo sapiens); assay: Agonist activity at ROR gamma in human CD4+ T cells assessed as IL-17 production at 3 uM by ELISA; type: cell-based; details: T-cell
[16] = Plasma concentration in mouse at 10 mg/kg, ip after 4 hrs; type: ADME, organism-based; set-up: dose 10 mg/kg, route intraperitoneal
[17] = Plasma concentration in mouse at 10 mg/kg, ip after 0.5 hrs; type: ADME, organism-based; set-up: dose 10 mg/kg, route intraperitoneal
[18] = target: T7, Nuclear receptor ROR-gamma (Mus musculus) (UniProt P51450); details: CHO-K1
T7 sequence (whole entry): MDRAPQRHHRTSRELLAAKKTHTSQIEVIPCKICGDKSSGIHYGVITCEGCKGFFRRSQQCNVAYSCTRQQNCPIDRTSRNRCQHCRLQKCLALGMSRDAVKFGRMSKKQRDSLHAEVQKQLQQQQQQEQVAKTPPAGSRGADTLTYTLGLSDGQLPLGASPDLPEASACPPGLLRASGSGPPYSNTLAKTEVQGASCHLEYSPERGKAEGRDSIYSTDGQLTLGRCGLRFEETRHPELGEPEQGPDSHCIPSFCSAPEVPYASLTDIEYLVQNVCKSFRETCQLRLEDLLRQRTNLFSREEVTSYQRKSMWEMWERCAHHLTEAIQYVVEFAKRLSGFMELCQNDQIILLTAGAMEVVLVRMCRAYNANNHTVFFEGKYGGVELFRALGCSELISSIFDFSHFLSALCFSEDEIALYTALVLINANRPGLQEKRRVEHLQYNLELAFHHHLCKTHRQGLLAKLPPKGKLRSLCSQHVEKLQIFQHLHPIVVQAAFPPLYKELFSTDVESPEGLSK
Description: Inverse agonist activity at mouse ROR gamma expressed in CHO-K1 cells after 24 hrs by luciferase reporter gene assay relative to vehicle control response

SMILES: CC(c1ccccc1)(c1ccc(O)cc1)c1ccc(O)cc1
- IC50 [1]: > 10000 nM

SMILES: CC1=C(/C=C/C(C)=C/C=C/C(C)=C/C(=O)O)C(C)(C)CCC1
- Imax [2]: 70%

SMILES: CC(CO)CCC[C@@H](C)[C@H]1CC[C@H]2[C@@H]3CC=C4C[C@@H](O)CC[C@]4(C)[C@H]3CC[C@]12C (stereo partly drawn)
- EC50 [3]: 20 nM

SMILES: O=C(Nc1ccc(C(O)(C(F)(F)F)C(F)(F)F)cc1)c1ccc(C(F)(F)F)cc1
- concentration at 1 h [4]: 3.6 µM
- concentration at 8 h [5]: > 0.8 µM

SMILES: CC(=O)N1CCN(Cc2ccc(-c3ccc(C(O)(C(F)(F)F)C(F)(F)F)cc3)cc2)CC1
- Activity [6]: < 5%

SMILES: O=C(O)c1ccc(-c2nn(C(=O)c3c(Cl)cccc3Cl)c3ccccc23)cc1
- EC50 [7]: 11 nM

SMILES: CC(C)[C@@H](O)CC[C@@H](C)[C@H]1CC[C@H]2[C@@H]3CC=C4C[C@@H](O)CC[C@]4(C)[C@H]3CC[C@]12C
- Ki [8]: 10 nM

SMILES: CC(C)CC[C@@H](O)[C@@H](C)[C@H]1CC[C@H]2[C@@H]3CC=C4C[C@@H](O)CC[C@]4(C)[C@H]3CC[C@]12C [22(R)-HYDROXYCHOLESTEROL]
- EC50 [3]: 20 nM

SMILES: CC(C)CCC[C@@H](C)[C@H]1CC[C@H]2[C@@H]3C(=O)C=C4C[C@@H](O)CC[C@]4(C)[C@H]3CC[C@]12C [7-OXOCHOLESTEROL]
- Ki [9]: 12 nM

SMILES: Cc1cccc(C(=O)Nc2cc(-c3ccccc3)no2)c1
- EC50 [10]: 100 nM
- melting temperature shift (delta Tm) [11]: 3 °C

SMILES: CCCOC/C(=N\c1ccc(Cl)cc1C(F)(F)F)n1ccnc1
- IC20 [12]: 10000 nM

SMILES: CCC(C)c1cc(C(C)(C)c2ccc(O)c(C(C)CC)c2)ccc1O (stereo not drawn)
- IC50 [1]: 150 nM

SMILES: CC(C)CCC(O)[C@@H](C)[C@H]1CC[C@H]2[C@@H]3CC=C4C[C@@H](O)CC[C@]4(C)[C@H]3CC[C@]12C (stereo partly drawn)
- melting temperature shift (delta Tm) [11]: 7.3 °C

SMILES: CC(=O)Nc1nc(C)c(S(=O)(=O)Nc2ccc(C(O)(C(F)(F)F)C(F)(F)F)cc2)s1
- Ki [8]: 111 nM
- EC50 [13]: 4000 nM
- Ki [9]: 172 nM
- EC50 [14]: 4000 nM

SMILES: Cc1cc(C)c2nc(NC(=O)c3sccc3C)sc2c1
- Activity [15]: 220%
- EC50 [10]: 100 nM
- melting temperature shift (delta Tm) [11]: 3 °C

SMILES: O=S(=O)(Nc1ccc(C(O)(C(F)(F)F)C(F)(F)F)cc1)c1cccs1
- concentration at 4 h [16]: > 0.36 µM
- concentration at 0.5 h [17]: 9 µM
- Ki [9]: 220 nM
- EC50 [14]: 480 nM

SMILES: OC(c1ccc(-c2ccc(CN3CCN(Cc4ccncc4)CC3)cc2)c(F)c1)(C(F)(F)F)C(F)(F)F
- Activity [6]: < 5%

SMILES: CC(C)CC[C@H](O)[C@@H](C)[C@H]1CC[C@H]2[C@@H]3CC=C4C[C@@H](O)CC[C@]4(C)[C@H]3CC[C@]12C
- EC50 [3]: 20 nM

SMILES: CC(C)CCC[C@@H](C)[C@H]1CC[C@H]2[C@@H]3[C@H](O)C=C4C[C@@H](O)CC[C@]4(C)[C@H]3CC[C@]12C
- Ki [8]: 10 nM

SMILES: CCC(=O)Nc1ccc2nn(-c3ccc(CC)cc3)nc2c1
- EC50 [10]: 100 nM
- melting temperature shift (delta Tm) [11]: 3 °C

SMILES: Clc1ccc(CS/C(Cn2cncn2)=N\c2ccc(Cl)cc2Cl)cc1
- IC20 [18]: 3000 nM
- IC20 [12]: 10000 nM

SMILES: CCCCC(O)(Cn1cncn1)c1ccc(Cl)cc1Cl (stereo not drawn)
- IC20 [18]: 3000 nM
- IC20 [12]: 10000 nM

SMILES: O=S(=O)(c1ccccc1)N(CC(F)(F)F)c1ccc(C(O)(C(F)(F)F)C(F)(F)F)cc1
- IC20 [12]: 12000 nM

SMILES: CC(C)CCC[C@@](C)(O)[C@H]1CC[C@H]2[C@@H]3CC=C4C[C@@H](O)CC[C@]4(C)[C@H]3CC[C@@]21C
- EC50 [3]: 20 nM

SMILES: CC(C)CCC[C@@H](C)[C@H]1CC[C@H]2[C@@H]3[C@@H](O)C=C4C[C@@H](O)CC[C@]4(C)[C@H]3CC[C@]12C
- Ki [8]: 10 nM
